Activity calls are given as the source filed them. The rule behind the calls is not given here.
Assays:
Jurkat [1] = assay: Cytotoxicity against human Jurkat cells assessed as inhibition of cell proliferation after 72 hrs by XTT assay; format: functional, cell-based
[2] = Cytotoxicity against human MM144 cells assessed as inhibition of cell proliferation after 72 hrs by XTT assay; format: functional, cell-based
HeLa = assay: Cytotoxicity against human HeLa cells assessed as inhibition of cell proliferation after 72 hrs by XTT assay; format: functional, cell-based
[3] = Cytotoxicity against human CADO-ES1 cells assessed as inhibition of cell proliferation after 72 hrs by XTT assay; format: functional, cell-based; details: CADO-ES1, 72 h
[4] = Inhibition of […] using p-nitrophenyl phosphate as substrate at <100 uM by UV/visible absorption spectroscopic analysis
[5] = Solubility of the compound in water; format: physicochemical; details: buffer
Jurkat [6] = assay: Induction of apoptosis in human Jurkat cells assessed as DNA breakdown in sub-G1 phase at 20 uM after 24 to 72 hrs using propidium iodide staining by flow cytometry; format: functional, cell-based
Jurkat [7] = assay: Cell cycle arrest in human Jurkat cells assessed as increase in apoptotic cells at sub-G1 phase at 20 uM after 72 hrs using propidium iodide staining by flow cytometry; format: functional, cell-based

Row | Compound | inhibition [4] | solubility [5] | IC50 (Jurkat [1]) [µM] | IC50 [2] [µM] | IC50 (HeLa) [µM] | IC50 [3] [µM] | Activity (Jurkat [6]) | Activity (Jurkat [7])
1 | CC(C)(O)[C@H]1CC[C@](C)([C@@H](O)CC[C@@](O)(CO)C(=O)CC[C@H]2O[C@@H]([C@]3(C)CC[C@@H](Br)C(C)(C)O3)CC[C@]2(C)O)O1 [PRETHYRSENOL A] | inactive | Insoluble | 8.15 | 10.2 | 29 | 14.5 | – | –
2 | C=C(CC[C@H](O)[C@@]1(C)CC[C@H](C(C)(C)O)O1)[C@H]1CC[C@H]2O[C@@H]([C@]3(C)CC[C@@H](Br)C(C)(C)O3)CC[C@]2(C)O1 [DEHYDROTHYRSIFEROL] | inactive | Insoluble | 13.5 | 21.5 | 34.5 | 12 | Active | Active
3 | C=C(CC[C@H](OS(=O)(=O)O)[C@@]1(C)CC[C@H](C(C)(C)O)O1)[C@H]1CC[C@H]2O[C@@H]([C@]3(C)CC[C@@H](Br)C(C)(C)O3)CC[C@]2(C)O1 | inactive | Insoluble | 12 | 18 | 33 | 27 | Active | Active
4 | CC(C)(O)[C@H]1CC[C@](C)([C@@H](O)CC[C@@H](CO)C2=CC[C@H]3O[C@@H]([C@]4(C)CC[C@@H](Br)C(C)(C)O4)CC[C@]3(C)O2)O1 | inactive | Insoluble | 7.55 | 7.3 | 23 | 16.5 | – | –
5 | CC(C)(O)[C@H]1CC[C@](C)([C@@H](O)CCC(O)(CO)[C@H]2CC[C@H]3O[C@@H]([C@]4(C)CC[C@@H](Br)C(C)(C)O4)CC[C@]3(C)O2)O1 (stereo partly drawn) | inactive | Insoluble | 4.6 | 21 | 24 | 18 | – | –

More lines, main results first:

Row | inhibition [4] | solubility [5] | Compound | IC50 (Jurkat [1]) [µM] | IC50 [2] [µM] | IC50 (HeLa) [µM] | IC50 [3] [µM] | Activity (Jurkat [6]) | Activity (Jurkat [7])
6 | inactive | Insoluble | CC(C)(O)[C@H]1CC[C@](C)([C@H](CCC(O)(COS(=O)(=O)O)[C@H]2CC[C@H]3O[C@@H]([C@]4(C)CC[C@@H](Br)C(C)(C)O4)CC[C@]3(C)O2)OS(=O)(=O)O)O1 (stereo partly drawn) | 8.6 | 31.5 | 35.5 | 17 | – | –
7 | inactive | – | CC(C)(O)[C@H]1CC[C@](C)([C@@H](O)CC[C@@](O)(CO)C2=CC[C@H]3O[C@@H]([C@]4(C)CC[C@@H](Br)C(C)(C)O4)CC[C@]3(C)O2)O1 | – | – | – | – | – | –
8 | inactive | Insoluble | CC(C)(O)[C@H]1CC[C@](C)([C@H](CCC(O)(CO)[C@H]2CC[C@H]3O[C@@H]([C@]4(C)CC[C@@H](Br)C(C)(C)O4)CC[C@]3(C)O2)OS(=O)(=O)O)O1 (stereo partly drawn) | 6.9 | 13.5 | 27.5 | 11 | – | –
9 | inactive | Insoluble | CC(C)(O)[C@H]1CC[C@](C)([C@@H](O)CC[C@@](O)(CO)C(=O)[C@H](O)C[C@H]2O[C@@H]([C@]3(C)CC[C@@H](Br)C(C)(C)O3)CC[C@]2(C)O)O1 | 7.2 | 15.5 | 26 | 3.1 | – | –
